Experimental data taken from article PMC9841523 (Journal of Medicinal Chemistry, 2022).

Experiments:
tumor p4EBP1 = assay: Tumor PD after a single dose in the MCF-7 CDX model; type: in vivo, mice; details: for effect on tumor p4EBP1 levels: MCF-7 CDX, single dose (38, 40 ip; everolimus 5 mg/kg oral); for MCF-7 tumor PD: dose proportional duration of >80% p4EBP1 inhibition: single ip dose
AurA, AurB, AurC = assay: KiNativ kinase panel; type: cell-based, human; details: 1 μM; MCF-7 Cells; ATP Loop; GKFGNVYLAR
CDK2 = molecular target: T1, CDK2 (Homo sapiens, UniProt P24941); assay: KiNativ kinase panel; type: cell-based; details: 1 μM, MCF-7 Cells
T1 construct: purchased ActivX Biosciences (KiNativ)

CK1g1, CK1g2, CK1g3 = assay: KiNativ kinase panel; type: cell-based, human; details: 1 μM, MCF-7 Cells, ATP Loop
ITPK1 = molecular target: T2, ITPK1 (Homo sapiens, UniProt Q13572); assay: KiNativ kinase panel; type: cell-based; details: 1 μM, MCF-7 Cells, ATP
T2 construct: endogenous in cells; host or cells: MCF7
T2 sequence (Q13572 1-414): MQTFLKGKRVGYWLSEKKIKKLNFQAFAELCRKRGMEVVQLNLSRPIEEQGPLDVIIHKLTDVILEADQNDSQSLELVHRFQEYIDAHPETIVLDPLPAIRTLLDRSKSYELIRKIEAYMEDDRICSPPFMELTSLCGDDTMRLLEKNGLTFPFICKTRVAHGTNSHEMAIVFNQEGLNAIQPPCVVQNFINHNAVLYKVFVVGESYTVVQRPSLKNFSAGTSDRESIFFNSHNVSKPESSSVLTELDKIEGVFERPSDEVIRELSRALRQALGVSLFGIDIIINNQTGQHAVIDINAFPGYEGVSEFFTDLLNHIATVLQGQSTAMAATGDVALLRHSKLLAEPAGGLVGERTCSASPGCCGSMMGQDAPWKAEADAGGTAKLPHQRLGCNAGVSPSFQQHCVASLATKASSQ

JNK1, JNK2, JNK3 = assay: KiNativ kinase panel; type: cell-based, human; details: 1 μM, MCF-7 Cells, Lys2
MAP2K7 = molecular target: T3, MAP2K7 (Homo sapiens, UniProt O14733); assay: KiNativ kinase panel; type: cell-based; details: 1 μM; MCF-7 Cells; Lys2; DVKPSNILLDER
T3 construct: MCF7 cells were exposed to; endogenous in cells; host or cells: MCF7
T3 sequence (O14733 whole entry): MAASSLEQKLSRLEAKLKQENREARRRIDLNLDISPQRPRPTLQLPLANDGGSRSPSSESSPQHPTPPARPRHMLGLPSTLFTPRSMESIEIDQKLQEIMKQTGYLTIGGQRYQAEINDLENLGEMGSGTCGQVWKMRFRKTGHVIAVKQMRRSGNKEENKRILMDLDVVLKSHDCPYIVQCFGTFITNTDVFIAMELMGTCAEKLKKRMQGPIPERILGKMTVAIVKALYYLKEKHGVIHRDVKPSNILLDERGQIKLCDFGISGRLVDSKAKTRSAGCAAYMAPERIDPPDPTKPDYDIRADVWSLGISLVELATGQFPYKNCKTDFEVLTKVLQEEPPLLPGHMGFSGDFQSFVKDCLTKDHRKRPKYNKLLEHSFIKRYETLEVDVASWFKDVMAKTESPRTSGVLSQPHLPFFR

MAP3K15, MAP3K5, MAP3K6 = assay: KiNativ kinase panel; type: cell-based, human; details: 1 μM; MCF-7 Cells; Lys1; IAIKEIPER
MAP4K3 = molecular target: T4, MAP4K3 (Homo sapiens, UniProt Q8IVH8); assay: KiNativ kinase panel; type: cell-based; details: 1 μM, MCF-7 Cells
T4 construct: MCF7 cells were exposed to; endogenous in cells; host or cells: MCF7
T4 sequence (Q8IVH8 1-894): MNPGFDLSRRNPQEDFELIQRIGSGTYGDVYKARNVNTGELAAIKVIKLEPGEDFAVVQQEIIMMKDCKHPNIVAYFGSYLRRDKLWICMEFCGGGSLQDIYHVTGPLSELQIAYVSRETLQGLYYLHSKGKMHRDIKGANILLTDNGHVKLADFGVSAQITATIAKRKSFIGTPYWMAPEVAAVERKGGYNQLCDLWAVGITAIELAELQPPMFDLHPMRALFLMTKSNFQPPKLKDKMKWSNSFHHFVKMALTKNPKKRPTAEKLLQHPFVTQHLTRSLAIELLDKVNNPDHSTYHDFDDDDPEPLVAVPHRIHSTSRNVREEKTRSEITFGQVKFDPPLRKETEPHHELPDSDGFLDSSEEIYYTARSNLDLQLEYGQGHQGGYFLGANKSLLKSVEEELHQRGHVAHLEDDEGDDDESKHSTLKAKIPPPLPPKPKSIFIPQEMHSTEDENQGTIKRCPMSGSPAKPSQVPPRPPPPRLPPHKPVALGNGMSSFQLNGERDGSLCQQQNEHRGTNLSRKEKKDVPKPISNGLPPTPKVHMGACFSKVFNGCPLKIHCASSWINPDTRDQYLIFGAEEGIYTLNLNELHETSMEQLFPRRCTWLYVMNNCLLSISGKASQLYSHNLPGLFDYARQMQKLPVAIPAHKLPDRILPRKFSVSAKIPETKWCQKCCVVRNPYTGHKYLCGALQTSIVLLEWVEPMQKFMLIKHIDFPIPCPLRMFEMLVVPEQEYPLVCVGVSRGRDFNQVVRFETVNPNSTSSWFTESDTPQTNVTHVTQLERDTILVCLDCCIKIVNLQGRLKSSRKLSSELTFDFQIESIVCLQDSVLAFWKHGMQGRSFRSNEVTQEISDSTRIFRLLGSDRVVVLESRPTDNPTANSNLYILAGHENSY

MAPKAPK2, MAPKAPK3 = assay: KiNativ kinase panel; type: cell-based, human; details: 1 μM, MCF-7 Cells, Lys2
[1] = test system: MSK1 domain1, MSK2 domain1; assay: KiNativ kinase panel; type: cell-based, human; details: 1 μM, MCF-7 Cells, ATP Loop
MST1, MST2 = assay: KiNativ kinase panel; type: cell-based, human; details: 1 μM, MCF-7 Cells, Lys2
PKCa, PKCg = assay: KiNativ kinase panel; type: cell-based, human; details: 1 μM, MCF-7 Cells, Other
hERG ion channel = hERG ion channel (Homo sapiens, UniProt Q12809); assay: in vitro hERG inhibition; details: for inhibition of the hERG ion channel: 10 µM
Sequence of hERG ion channel (Q12809 whole entry): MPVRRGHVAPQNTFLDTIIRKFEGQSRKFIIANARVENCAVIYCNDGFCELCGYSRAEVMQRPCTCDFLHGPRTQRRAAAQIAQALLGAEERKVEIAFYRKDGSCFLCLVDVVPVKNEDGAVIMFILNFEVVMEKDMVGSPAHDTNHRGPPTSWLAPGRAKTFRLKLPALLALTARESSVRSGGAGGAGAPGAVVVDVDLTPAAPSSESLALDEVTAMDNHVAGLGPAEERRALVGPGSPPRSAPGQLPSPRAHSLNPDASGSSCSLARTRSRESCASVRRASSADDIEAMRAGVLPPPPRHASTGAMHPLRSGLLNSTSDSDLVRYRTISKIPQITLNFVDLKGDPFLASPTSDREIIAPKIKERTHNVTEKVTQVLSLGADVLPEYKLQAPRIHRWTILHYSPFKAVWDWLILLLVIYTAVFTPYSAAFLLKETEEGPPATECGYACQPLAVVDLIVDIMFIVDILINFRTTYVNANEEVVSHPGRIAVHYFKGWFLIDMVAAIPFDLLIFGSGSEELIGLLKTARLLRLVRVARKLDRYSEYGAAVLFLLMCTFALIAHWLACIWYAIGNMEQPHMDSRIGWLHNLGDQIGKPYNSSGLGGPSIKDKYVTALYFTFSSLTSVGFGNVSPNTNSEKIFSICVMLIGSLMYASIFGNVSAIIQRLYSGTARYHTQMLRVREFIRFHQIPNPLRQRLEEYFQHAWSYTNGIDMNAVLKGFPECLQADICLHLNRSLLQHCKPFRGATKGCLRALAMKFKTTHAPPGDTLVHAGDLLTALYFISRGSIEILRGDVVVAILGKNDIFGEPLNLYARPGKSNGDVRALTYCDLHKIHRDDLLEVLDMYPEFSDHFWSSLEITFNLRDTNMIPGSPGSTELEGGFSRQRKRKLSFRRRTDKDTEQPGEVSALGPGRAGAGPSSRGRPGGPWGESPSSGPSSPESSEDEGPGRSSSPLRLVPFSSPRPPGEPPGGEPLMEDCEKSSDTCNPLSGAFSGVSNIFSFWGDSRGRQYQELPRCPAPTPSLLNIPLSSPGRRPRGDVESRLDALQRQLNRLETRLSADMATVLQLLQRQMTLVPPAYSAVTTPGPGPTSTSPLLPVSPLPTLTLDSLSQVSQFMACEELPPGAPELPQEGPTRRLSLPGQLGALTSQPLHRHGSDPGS

[2] = ESIFFNSHNVSKPESSSVLTELDKIEGVFERPSDEVIR

Compound	effect on tumor p4EBP1 levels (tumor p4EBP1)	MCF-7 tumor PD: dose proportional duration of >80% p4EBP1 inhibition (tumor p4EBP1) [h]	KiNativ Kinase Panel Data (AurA, AurB, AurC)	KiNativ Kinase Panel Data (CDK2; Lys1, LTGEVVALKK)	KiNativ Kinase Panel Data (CDK2; Lys2, DLKPQNLLINTEGAIK)	KiNativ Kinase Panel Data (ITPK1; [2])	KiNativ Kinase Panel Data (MAP2K7)	KiNativ Kinase Panel Data (MAP3K15, MAP3K5, MAP3K6)	KiNativ Kinase Panel Data (MAP4K3; Lys1, NVNTGELAAIKVIK)	KiNativ Kinase Panel Data (MAP4K3; Lys2, DIKGANILLTDNGHVK)	in vitro hERG inhibition (10 μM) (hERG ion channel) [%]	inhibition of the hERG ion channel (hERG ion channel)	other results
CO[C@H]1C[C@@H]2CC[C@@H](C)[C@@](O)(O2)C(=O)C(=O)N2CCCC[C@H]2C(=O)O[C@H]([C@H](C)C[C@@H]2CC[C@@H](OC(=O)NCCOCCOCCOCCOCCOCCOCCOCCOCCC(=O)N3CCc4cc(Cn5nc(-c6ccc7oc(N)nc7c6)c6c(N)ncnc65)ccc4C3)[C@H](OC)C2)C[C@@H](O)[C@H](C)/C=C(\C)[C@@H](O)[C@@H](OC)C(=O)[C@H](C)C[C@H](C)/C=C/C=C/C=C/1C [compound 38]	dose-dependent, prolonged, and profound inhibition	24 to 48	34.8	1.0	13.1	6.5	20.9	24.5	12.2	-6.9	16	low	KiNativ Kinase Panel Data (CK1g1, CK1g2, CK1g3; […]): 8.9; KiNativ Kinase Panel Data (ITPK1; […]): 22.4; KiNativ Kinase Panel Data (JNK1, JNK2, JNK3; […]): 13.8; KiNativ Kinase Panel Data (MAPKAPK2, MAPKAPK3; […]): -19.9; KiNativ Kinase Panel Data ([1]; […]): 33.6; KiNativ Kinase Panel Data (MST1, MST2; […]): 3.0; KiNativ Kinase Panel Data (PKCa, PKCg; […]): -20.9
CO[C@H]1C[C@@H]2CC[C@@H](C)[C@@](O)(O2)C(=O)C(=O)N2CCCC[C@H]2C(=O)O[C@H]([C@H](C)C[C@@H]2CC[C@@H](OC(=O)NCCOCCOCCOCCOCCOCCOCCOCCOCCC(=O)NCCS(=O)(=O)c3ccc(C(=O)N4CCOc5ccc(-c6ccc(N)nc6)cc5C4)c(C)c3F)[C@H](OC)C2)C[C@@H](O)[C@H](C)/C=C(\C)[C@@H](O)[C@@H](OC)C(=O)[C@H](C)C[C@H](C)/C=C/C=C/C=C/1C [compound 40]	dose-dependent, robust, and long-lasting inhibition	24 to 48	-3.6	-29.1	-40.9	-9.6	-14.8	-4.5	-19.2	69.9	6	low	KiNativ Kinase Panel Data (CK1g1, CK1g2, CK1g3; KIGCGNFGELR): -7.8; KiNativ Kinase Panel Data (ITPK1; NFSAGTSDRESIFFNSHNVSKPESSSVLTELDKIEGVFERPSDEVIR): -12.4; KiNativ Kinase Panel Data (JNK1, JNK2, JNK3; DLKPSNIVVK): -9.5; KiNativ Kinase Panel Data (MAPKAPK2, MAPKAPK3; DVKPENLLYTSK): -27.1; KiNativ Kinase Panel Data ([1]; VLGTGAYGKVFLVR): 16.0; KiNativ Kinase Panel Data (MST1, MST2; DIKAGNILLNTEGHAK): -6.5; KiNativ Kinase Panel Data (PKCa, PKCg; NLIPMDPNGLSDPYVKLK): 31.7
